From US20100016392A1, “Pesticidal Aggregates” (priority 2006, published 2010)

Assays:
[1] = Amount of pesticide incorporated into Sokalan PA-15/Arquad 18/50 aggregate; assay type: physicochemical; conditions: pesticide incorporated into aggregate with 1 equivalent Sokalan PA-15 and 2 equivalents Arquad 18/50
Procedure: […] of the active ingredient listed was placed into a 20 mL vial and 1 equivalent of a 1 molar sodium hydroxide solution added. The mixture was stirred until the active dissolved (0.5 or 1.0 gram of deionized water was added if necessary). One equivalent of Sokalan PA-15 (linear polyacrylic acid sodium salt with low molecular weight of 1200 g/mol) was added and the mixture mixed. 2 equivalents of Arquad 18/50 octadecyltrimethyl ammonium chloride (aqueous isopropanol solution) were added and the mixture was stirred using a vortex mixer. Using a process similar to that described in Example 2, the amount of pesticide incorporated into the aggregate was measured.

[2] = cited from earlier work
[3] = Uptake of pesticide into the aggregate, UV-spectroscopy of the supernatant; assay type: physicochemical
[4] = cited from earlier work; remark: listed apart in the source

| Structure (SMILES) | Percent a.i. [1] | pKa [2] | further results |
| --- | --- | --- | --- |
| CCOc1nc(F)cc2nc(S(=O)(=O)Nc3c(Cl)cccc3C(=O)OC)nn12 [Cloransulam-methyl] | 5.11 | 5.4 | – |
| CS(=O)(=O)NC(=O)c1cc(Oc2ccc(C(F)(F)F)cc2Cl)ccc1[N+](=O)[O-] [Fomesafen, 5-[2-chloro-4-(trifluoromethyl)phenoxy]-N-(methylsulfonyl)-2-nitrobenzamide] | 7.17 | – | – |
| N#Cc1cc(Br)c(O)c(Br)c1 [Bromoxynil, 3,5-dibromo-4-hydroxybenzonitrile] | 4.34 | – | – |
| C[C@@H](Oc1ccc(Oc2cnc3cc(Cl)ccc3n2)cc1)C(=O)O [Quizalofop-P] | 4.76 | >3 | – |
| CCc1cnc(C2=NC(C)(C(C)C)C(=O)N2)c(C(=O)O)c1 (racemic) [Imazethapyr, (+/−)-2-[4,5-dihydro-4-methyl-4-(1-methylethyl)-5-oxo-1H-imidazol-2-yl]-5-ethyl-3-pyridinecarboxylic acid] | 5.57 | – | – |
| COc1c(Cl)ccc(Cl)c1C(=O)O [Dicamba, 3,6-dichloro-2-methoxybenzoic acid] | 3.77 | 3 | – |
| CC1(C(=O)Nc2ccc(O)c(Cl)c2Cl)CCCCC1 [Fenhexamid] | 4.47 | – | – |
| O=C(NC(=O)c1c(F)cccc1F)Nc1cc(Cl)c(OC(F)(F)C(F)C(F)(F)F)cc1Cl (centres unmarked) [Lufenuron] | 8.16 | – | – |
| O=C(O)CNCP(=O)(O)O [Glyphosate, N-(phosphonomethyl)glycine] | 4.70 | 4.4 | – |
| Cc1nn(-c2cc(NS(C)(=O)=O)c(Cl)cc2Cl)c(=O)n1C(F)F [Sulfentrazone] | – | – | Uptake of sulfentrazone in the aggregate ([3]; mixture: Atlox 550S 0.075, C14NBr 0.5, sulfentrazone 0.5 weight %): 74 w/w %; Uptake of sulfentrazone in the aggregate ([3]; mixture: Atlox 550S 0.15, C14NBr 0.7, sulfentrazone 0.5 weight %): 83 w/w %; Uptake of sulfentrazone in the aggregate ([3]; mixture: Atlox 550S 0.25, C14NBr 0.75, sulfentrazone 0.5 weight %): 77 w/w %; Uptake of sulfentrazone in the aggregate ([3]; mixture: Atlox 550S 0.5, C14NBr 1.25, sulfentrazone 0.5 weight %): 90 w/w %; Uptake of sulfentrazone in the aggregate ([3]; mixture: REAX 88B 0.25, C14NBr 0.6, sulfentrazone 0.5 weight %): 82 w/w %; Uptake of sulfentrazone in the aggregate ([3]; mixture: REAX 88B 0.30, C14NBr 0.8, sulfentrazone 0.5 weight %): 92 w/w %; Uptake of sulfentrazone in the aggregate ([3]; mixture: REAX 88B 0.5, C14NBr 1.0, sulfentrazone 0.5 weight %): 94 w/w % |
| O=C(O)c1nc(Cl)ccc1Cl [Clopyralid (Lontrel)] | 3.46 | – | – |
| CS(=O)(=O)c1ccc(C(=O)C2C(=O)CCCC2=O)c([N+](=O)[O-])c1 [Mesotrione] | 6.21 | – | – |
| C=C1C[C@]23C[C@@]1(O)CC[C@H]2[C@@]12C=C[C@H](O)[C@@](C)(C(=O)O1)[C@H]2[C@@H]3C(=O)O [Gibberellic acid] | 6.28 | – | – |
| Cc1c(COC(=O)[C@@H]2[C@H](/C=C(\Cl)C(F)(F)F)C2(C)C)cccc1-c1ccccc1 (racemic) [Bifenthrin] | – | – | octanol/water partition coefficient log P [4]: > 6 |
| CCC(CC)Nc1c([N+](=O)[O-])cc(C)c(C)c1[N+](=O)[O-] [pendimethalin] | – | – | octanol/water partition coefficient log P [4]: 5.2 |
| COc1cc(OC)nc(NC(=O)NS(=O)(=O)c2ncccc2C(=O)N(C)C)n1 [Nicosulfuron] | 6.96 | 4.5 | – |
| O=C(O)COc1ccc(Cl)cc1Cl [2,4-D, (2,4-dichlorophenoxy)acetic acid] | 2.45 | 2.9 | – |
